Source: patent publication US20130012709A1, “NOVEL INHIBITORS OF STEAROYL-CoA-DESATURASE-1 AND THEIR USES” (CENTRE NATIONAL DE LA RECHERCHE SCIENTIFIQUE, priority 2009, published 2013)
Where two headings read alike, the source gives them in different places.

Key:
C4-2 cells [1] = test: Proliferation by BrDU incorporation; settings: 25 μM, 48 h of treatment
Procedure: (§2) LNCaP and C4-2 cells grown on coverslips were incubated for 4 hours with BrdU (100 μM final) at 24 hours and 48 hours following SCD-1 knock-down. Cells were then fixed and permeabilized with cold methanol for 10 min at −20° C. After 3 washes with PBS, DNA was denaturated with 4NHCL for 10 min at RT, and cells were incubated with blocking buffer (PBS-1% BSA). BrDU was then detected with anti-BrDU monoclonal antibody 1:50 (Dako, Carpinteria, Calif.) for 1 hour at 37° C. After 3 washes with PBS, cells were incubated with an FITC-conjugated anti-mouse secondary antibody 1:150 (Jackson Immunoresearch) for 30 min at 37° C., and slides were mounted in mowiol.

C4-2 cells [2] = test: MTT assay (cell viability); settings: 48 h
Procedure: (§3) After 48 h, medium was removed and 250 μl of a 5 mg/ml MTT (Sigma, St Louis, Mo., USA) solution in PBS was added to each well. After 4 h incubation at 37° C., the MTT solution was removed, 200 μl of DMSO (Sigma) was added and cells were incubated for 5 min. Two hundred microliters of each samples was distributed in 96-well plates for an optical density reading at 540 nm.

C4-2 cells [3] = test: Flow cytometry analysis of cell cycle; type: cell-based, human; settings: 25 μM, 48 h; untreated cells 22
Procedure: (§1) Cells were then rinsed in PBS, pelleted at 400 g for 5 min and maintained on ice for 20 min before resuspension in a […] propidium iodide (Sigma) solution. Cells were kept overnight at 4° C. and the percentages of cells in G1, S and G2-M phases of the cell cycle were measured with a Coulter Epics XL™ flow cytometer (Becton Dickinson) using 488-nm laser excitation. For apoptosis experiment, MEFs were treated with the tested compound at 25 μM for 24 h, then rinced in PBS, pelleted at 400 g for 5 min and stained with annexinV-FITC (Roche Diagnostics, Meylan, France) for 15 min at 4° C. The percentage of annexin positive cells was immediately analysed using 488-nm laser excitation.

LNCaP cells [4] = test: Flow cytometry analysis of cell cycle; type: cell-based, human; settings: 25 μM, 48 h; untreated cells 20
Procedure: as §1

LNCaP cells [5] = test: Proliferation by BrDU incorporation; type: cell-based, human; settings: 25 μM, 48 h of treatment
Procedure: as §2

C4-2 cells [6] = test system: C4-2 cells
Procedure: as §3

| SMILES | % Inhibition of proliferation at 25 μM (BrDU) on C4-2 (C4-2 cells [1]) | % Inhibition of proliferation at 25 μM (BrDU) on LNCaP (LNCaP cells [5]) | further results |
| --- | --- | --- | --- |
| COc1ccc(Br)c(C(=O)N2CCN(S(=O)(=O)c3ccccc3)CC2)c1 [Example 1, 1N-[(2-bromo-5-methoxybenzoyl)]-4N-[(phenyl)sulfonyl]piperazine] | 22.7 ± 11.2% | – | Viable C4-2 cells at 25 μM (% of control) (C4-2 cells [2]): 45 % of control; % C4-2 cells in phase S at 25 μM (C4-2 cells [3]): 20.1%; % LNCaP cells in phase S at 25 μM (LNCaP cells [4]): 18% |
| COc1ccccc1C(=O)N1CCN(S(=O)(=O)c2ccc(F)cc2F)CC1 [Example 32, 1N-[(2-methoxybenzoyl)]-4-N-[(2,4-difluorophenyl)sulfonyl]piperazine] | 0% | – | – |
| CCCc1ccc(S(=O)(=O)N2CCN(C(=O)c3cc(OC)ccc3Br)CC2)cc1 [Example 5, 1N-[(2-bromo-5-methoxybenzoyl)]-4N-[(4-propylphenyl)sulfonyl]piperazine] | 26.8 ± 20.2% | – | % C4-2 cells in phase S at 25 μM (C4-2 cells [3]): 10.7%; % LNCaP cells in phase S at 25 μM (LNCaP cells [4]): 3% |
| COc1ccc(Br)c(C(=O)N2CCN(S(=O)(=O)c3ccc([N+](=O)[O-])cc3)CC2)c1 [Example 6, 1N-[(2-bromo-5-methoxybenzoyl)]-4N-[(4-nitrophenyl)sulfonyl]piperazine] | 0% | – | Viable C4-2 cells at 25 μM (% of control) (C4-2 cells [2]): 42 % of control; % C4-2 cells in phase S at 25 μM (C4-2 cells [3]): 19.8%; % LNCaP cells in phase S at 25 μM (LNCaP cells [4]): 15% |
| COc1ccc(Br)c(C(=O)N2CCN(S(=O)(=O)c3ccc(-c4ccccc4)cc3)CC2)c1 [Example 9, 1N-[(2-bromo-5-methoxybenzoyl)]-4N-[(4-biphenyl)sulfonyl]piperazine] | 60.5 ± 5.7% | 48.3% | Viable C4-2 cells at 25 μM (% of control) (C4-2 cells [2]): 90 % of control |
| COc1ccc(Br)c(C(=O)N2CCN(S(=O)(=O)c3ccc(Br)cc3)CC2)c1 [Example 17, 1N-[(2-bromo-5-methoxybenzoyl)]-4N-[(4-bromophenyl)sulfonyl]piperazine] | 67.6 ± 8.2% | – | – |
| COc1ccc(Br)c(C(=O)N2CCN(S(=O)(=O)Cc3ccccc3)CC2)c1 [Example 20, 1N-[(2-bromo-5-methoxybenzoyl)]-4N-[(phenylmethane)sulfonyl]piperazine] | 46.3 ± 11.7% | 16.8% | Viable C4-2 cells at 25 μM (% of control) (C4-2 cells [2]): 37 % of control |
| COc1ccc(Br)c(C(=O)N2CCN(S(=O)(=O)c3ccco3)CC2)c1 [Example 23, 1N-[(2-bromo-5-methoxybenzoyl)]-4N-[(2-furan)sulfonyl]piperazine] | 48 ± 14% | – | – |
| COc1ccc(Br)c(C(=O)N2CCN(S(=O)(=O)c3ccc(C)cc3)CC2)c1 [Example 10, 1N-[(2-bromo-5-methoxybenzoyl)]-4N-[(4-methylphenyl)sulfonyl]piperazine] | 0% | 0% | Viable C4-2 cells at 25 μM (% of control) (C4-2 cells [2]): 59 % of control |
| O=C(c1ccsc1)N1CCN(S(=O)(=O)c2ccc(F)cc2F)CC1 [Example 36, 1N-[3-thiophenecarbonyl]-4-N-[(2,4-difluorophenyl)sulfonyl]piperazine] | 40 ± 7.6% | – | – |
| COc1ccc(Br)cc1C(=O)N1CCN(S(=O)(=O)c2ccc(F)cc2F)CC1 [Example 27, 1N-[(2-methoxy-5-bromobenzoyl)]-4-N-[(2,4-difluorophenyl)sulfonyl]piperazine] | 26.2 ± 6.2% | – | – |
| COc1ccc(Br)c(C(=O)N2CCN(S(=O)(=O)c3ccccc3C(F)(F)F)CC2)c1 [Example 8, 1N-[(2-bromo-5-methoxybenzoyl)]-4N-[(2-trifluoromethylphenyl)sulfonyl]piperazine] | 84.4 ± 8.5% | 40.1% | Viable C4-2 cells at 25 μM (% of control) (C4-2 cells [6]): 73 % of control |
| COc1ccc(Br)c(C(=O)N2CCN(S(=O)(=O)c3cccs3)CC2)c1 [Example 21, 1N-[(2-bromo-5-methoxybenzoyl)]-4N-[(2-thiophene)sulfonyl]piperazine] | 58.3 ± 19.9% | – | – |
| O=C(c1cscn1)N1CCN(S(=O)(=O)c2ccc(F)cc2F)CC1 [Example 37, 1N-[4-thiazolecarbonyl]-4-N-[(2,4-difluorophenyl)sulfonyl]piperazine] | 37 ± 7.8% | – | – |
| COc1ccc(C(=O)N2CCN(S(=O)(=O)c3ccc(F)cc3F)CC2)cc1Br [Example 26, 1N-[(3-bromo-4-methoxybenzoyl)]-4-N-[(2,4-difluorophenyl)sulfonyl]piperazine] | 68.2 ± 18.2% | – | – |
| COc1cccc(C(=O)N2CCN(S(=O)(=O)c3ccc(F)cc3F)CC2)c1 [Example 31, 1N-[(3-methoxybenzoyl)]-4-N-[(2,4-difluorophenyl)sulfonyl]piperazine] | 25.3 ± 6.1% | – | – |
| COc1ccc(Br)c(C(=O)N2CCN(S(=O)(=O)c3cccc(C(F)(F)F)c3)CC2)c1 [Example 7, 1N-[(2-bromo-5-methoxybenzoyl)]-4N-[(3-trifluoromethylphenyl)sulfonyl]piperazine] | 31.6 ± 7.61% | 16.7% | Viable C4-2 cells at 25 μM (% of control) (C4-2 cells [6]): 44 % of control |
| COc1c(Br)cccc1C(=O)N1CCN(S(=O)(=O)c2ccc(F)cc2F)CC1 [Example 28, 1N-[(2-methoxy-3-bromobenzoyl)]-4-N-[(2,4-difluorophenyl)sulfonyl]piperazine] | 55.4 ± 14% | – | – |
| COc1ccc(Br)c(C(=O)N2CCN(S(=O)(=O)c3ccc(OC(F)(F)F)cc3)CC2)c1 [Example 11] | 63 ± 4.1% | 45.5% | Viable C4-2 cells at 25 μM (% of control) (C4-2 cells [6]): 74 % of control |
| COc1ccc(Br)c(C(=O)N2CCN(S(=O)(=O)c3ccc(C(C)=O)cc3)CC2)c1 [Example 4, 1N-[(2-bromo-5-methoxybenzoyl)]-4N-[(4-acetylphenyl)sulfonyl]piperazine] | 36 ± 5.4% | – | % C4-2 cells in phase S at 25 μM (C4-2 cells [3]): 19.7%; % LNCaP cells in phase S at 25 μM (LNCaP cells [4]): 18% |
| COc1ccc(S(=O)(=O)N2CCN(C(=O)c3cc(OC)ccc3Br)CC2)cc1 [Example 19, 1N-[(2-bromo-5-methoxybenzoyl)]-4N-[(4-methoxyphenyl)sulfonyl]piperazine] | 22.4 ± 7.7% | – | – |
| COc1ccc(Br)c(C(=O)N2CCN(S(=O)(=O)c3c(F)cccc3F)CC2)c1 [Example 14, 1N-[(2-bromo-5-methoxybenzoyl)]-4N-[(2,6-difluorophenyl)sulfonyl]piperazine] | 0% | – | – |
| COc1ccc(Br)c(C(=O)N2CCN(S(=O)(=O)c3cccc(F)c3)CC2)c1 [Example 15, 1N-[(2-bromo-5-methoxybenzoyl)]-4N-[(3-fluorophenyl)sulfonyl]piperazine] | 35.7 ± 6% | 0% | Viable C4-2 cells at 25 μM (% of control) (C4-2 cells [6]): 83 % of control |
| COc1ccc(Br)c(C(=O)N2CCN(S(=O)(=O)c3ccccc3F)CC2)c1 [Example 13, 1N-[(2-bromo-5-methoxybenzoyl)]-4N-[(2-fluorophenyl)sulfonyl]piperazine] | 55.6 ± 3.1% | 27.1% | Viable C4-2 cells at 25 μM (% of control) (C4-2 cells [6]): 56 % of control |
| COc1ccc(Br)c(C(=O)N2CCN(S(=O)(=O)c3ccc(C(C)C)cc3)CC2)c1 [Example 16, 1N-[(2-bromo-5-methoxybenzoyl)]-4N-[(4-isopropylphenyl)sulfonyl]piperazine] | 75.4 ± 10.8% | – | – |
| COc1ccc(Br)c(C(=O)N2CCN(S(=O)(=O)c3ccc(C(F)(F)F)cc3)CC2)c1 [Example 3, 1N-[(2-bromo-5-methoxybenzoyl)]-4N-[(4-trifluoromethylphenyl)sulfonyl]piperazine] | 65.8 ± 6.4% | – | % C4-2 cells in phase S at 25 μM (C4-2 cells [3]): 2.8%; % LNCaP cells in phase S at 25 μM (LNCaP cells [4]): 10% |
| COc1ccc(Br)c(C(=O)N2CCN(S(=O)(=O)c3ccc(Cl)cc3)CC2)c1 [Example 18, 1N-[(2-bromo-5-methoxybenzoyl)]-4N-[(4-chlorophenyl)sulfonyl]piperazine] | 38.1 ± 7.1% | 49.7% | Viable C4-2 cells at 25 μM (% of control) (C4-2 cells [2]): 59 % of control |
| COc1ccc(Br)c(C(=O)N2CCN(S(=O)(=O)c3ccoc3)CC2)c1 [Example 24, 1N-[(2-bromo-5-methoxybenzoyl)]-4N-[(3-furan)sulfonyl]piperazine] | 28.4 ± 9.8% | – | – |
| COc1ccc(Br)c(C(=O)N2CCN(S(=O)(=O)c3cn(C)cn3)CC2)c1 [Example 25, 1N-[(2-bromo-5-methoxybenzoyl)]-4N-[(1-methyl-1H-imidazole)sulfonyl]piperazine] | 0% | – | – |
| COc1ccc(Br)c(C(=O)N2CCN(S(=O)(=O)c3ccsc3)CC2)c1 [Example 22, 1N-[(2-bromo-5-methoxybenzoyl)]-4N-[(3-thiophene)sulfonyl]piperazine] | 28 ± 2.6% | – | – |
